test system: bronchoconstriction; assay: not given; details: doses times lower than histamine; cited from earlier work

Row | Compound | doses inducing bronchoconstriction, relative to histamine
1 | CCCCCCCCCCCCCCCCOCC(COP(=O)([O-])OCC[N+](C)(C)C)OC(C)=O (centres unmarked) [PAF-"acether", 1-O-hexadecyl/octodecyl-2-acetyl-sn-glycero-3-phosphocoline] | 100 times lower

test system: PAF; assay: not given; details: background statement; cited from earlier work

Row | Compound | PAF antagonistic properties
2 | COC(=O)C1=C(C)NC(C)=C(C(=O)OC)C1c1ccccc1[N+](=O)[O-] [Nifedipina] | only show a very weak activity
3 | COc1ccc([C@@H]2Sc3ccccc3N(CCN(C)C)C(=O)[C@@H]2OC(C)=O)cc1 [Diltiazem] | present PAF antagonistic properties
4 | COc1ccc(CCN(C)CCCC(C#N)(c2cc(OC)c(OC)c(OC)c2)C(C)C)cc1OC (centres unmarked) [Gallopamil] | present PAF antagonistic properties

same assay, conditions: fold higher than those inhibiting calcium flow in other cells; cited from earlier work

Row | Compound | concentrations needed to obtain an effect, relative to those inhibiting calcium flow in other cells
5 | COC(=O)C1=C(C)NC(C)=C(C(=O)OC)C1c1ccccc1[N+](=O)[O-] [Nifedipina] | 1,000,000

same assay, conditions: times greater than the specific antagonists of the PAF-"acether"; cited from earlier work

Row | Compound | concentrations needed to obtain an effect, relative to the specific antagonists of the PAF-"acether"
6 | COC(=O)C1=C(C)NC(C)=C(C(=O)OC)C1c1ccccc1[N+](=O)[O-] [Nifedipina] | ≥ 1,000 times

test system: aggregation induced by 1-PAF in rabbit platelets; assay: Effect on the aggregation induced by 1-PAF in rabbit platelets (washed platelets); format: cell-based, rabbit (male, albino, New Zealand); details: Oryctolagus cuniculus, Platelet, 37° C., 5 min preincubation, 1-PAF=1.92 nM, compounds 10 to 0.1 micM, mean of three experiments in duplicate
Procedure: STUDIES WITH WASHED PLATELETS: Aggregation
The suspensions of washed platelets were obtained from rabbit's blood (male, albino, New Zealand), anticoagulated with a solution of citric acid citrate/sodium dextrose in the ratio 1:6 (v:v).
The platelet rich plasma (PRP) was obtained by centrifuging blood samples at 100×g for 10 minutes and the platelets by centrifuging the PRP at 1,800×g for 15 minutes at 4° C. The pellet obtained in this way was washed twice with Tyrode tampon containing citric acid, PGE and aspirase, pH 6.5. The platelets so-washed were finally resuspended in Hepes-Tyrode tampon, pH 7.35 supplemented with bovine seric albumin at 0.35%; Ca++ 2 mM.
The final platelet concentration was adjusted to 300,000 platelets/mic-1. The aggregation was measured turbidimetrically using a lumiaggregometre (Chrono-Log.Co; Haventon, Pa., USA) at 37° C. under stirring at 1,100 r.p.m. The study was made in aliquots of preincubated PRP, with the compounds under study, for 5 minutes. The concentration of the antagonists was, in all cases, between 10 micM and 0.1 micM. The aggregation was induced by adding L-PAF diluted in 5 micl of Hepes/albumin tampon, the final concentration being 1.9×0,000000001. The IC50 for each compound was evaluated graphically from the dose-response curves.
The data reflected is the mean of three experiments performed in duplicate. Concentration of 1-PAF=1.92 nM.
The concentrations of compounds, in all cases, were between 10 and 0.1 micM .

Row | Compound | IC50
7 | COC(=O)C1=C(C)NC(C)=C(C(=O)OCCCOc2ccc(-c3ccccc3)cc2)C1C (centres unmarked) [Example 3, 3-(4-phenylphenoxy) propyl 5-methoxycarbonyl-2,4,6-trimethyl-1,4-dihydropyridine-3-carboxylate] | 240 nM
8 | COC(=O)C1=C(C)NC(C)=C(C(=O)OCCCSc2ccc(Cl)c(Cl)c2)C1C (centres unmarked) [Example 45] | 150 nM
9 | COC(=O)C1=C(C)NC(C)=C(C(=O)OCCCSc2ccc(C)cc2)C1C (centres unmarked) [Example 4, 3-(4-methylphenylthio) propyl 5-methoxycarbonyl-2,4,6-trimethyl-1,4-dihydropyridine-3-carboxylate] | 850 nM
10 | COC(=O)C1=C(C)NC(C)=C(C(=O)OCCS(=O)(=O)c2ccccc2)C1C (centres unmarked) [Example 5, 2-(phenylsulphonyl) ethyl 5-methoxycarbonyl-2,4,6-trimethyl-1,4-dihydropyridine-3-carboxylate] | 1300 nM
11 | COC(=O)C1=C(C)NC(C)=C(C(=O)OCCCOc2ccccc2)C1C (centres unmarked) [Example 6] | 3000 nM
12 | COC(=O)C1=C(C)NC(C)=C(C(=O)OCCCOc2ccc(C)cc2)C1C (centres unmarked) [Example 48] | 4000 nM
13 | CCOC(=O)C1=C(C)NC(C)=C(C(=O)OCCCSc2ccc(Cl)c(Cl)c2)C1C (centres unmarked) [Example 46] | 1400 nM
14 | COC(=O)C1=C(C)NC(C)=C(C(=O)OCCCSc2ccc(NC(C)=O)cc2)C1C (centres unmarked) [Example 30] | 3100 nM
15 | COC(=O)C1=C(C)NC(C)=C(C(=O)OCCCS(=O)(=O)c2ccccc2)C1C (centres unmarked) [Example 13] | 2300 nM
16 | COC(=O)C1=C(C)NC(C)=C(C(=O)OCCCSc2ccc(Cl)cc2)C1C (centres unmarked) [Example 1, 3-(4-chlorophenylthio) propyl 5-methoxycarbonyl-2,4,6-trimethyl-1,4-dihydropyridine-3-carboxylate] | 340 nM
17 | COC(=O)C1=C(C)NC(C)=C(C(=O)OCCS(=O)(=O)c2ccc(C)cc2)C1C (centres unmarked) [Example 2, 2-(4-methylphenylsulphonyl) ethyl 5-methoxycarbonyl-2,4,6-trimethyl-1,4-dihydropyridine-3-carboxylate] | 1100 nM
18 | COC(=O)C1=C(C)NC(C)=C(C(=O)OCCCOc2ccc(Cl)c(Cl)c2)C1C (centres unmarked) [Example 41] | 2700 nM

Other lines, results leading:

Row | IC50 | Compound
19 | 4300 nM | COC(=O)C1=C(C)NC(C)=C(C(=O)OCCOc2ccc([N+](=O)[O-])cc2)C1C (centres unmarked) [Example 110]
20 | 2800 nM | COC(=O)C1=C(C)NC(C)=C(C(=O)OCCOc2cccc(N(C)C)c2)C1C (centres unmarked) [Example 135]
21 | 3000 nM | COC(=O)C1=C(C)NC(C)=C(C(=O)OCCOc2cccc3ccccc23)C1C (centres unmarked) [Example 113]
22 | 400 nM | COC(=O)C1=C(C)NC(C)=C(C(=O)OCCCSc2ccc3ccccc3c2)C1C (centres unmarked) [Example 167]
23 | 700 nM | COC(=O)C1=C(C)NC(C)=C(C(=O)OCCCOc2ccc(Oc3ccccc3)cc2)C1C (centres unmarked) [Example 139]
24 | 2400 nM | CCOC(=O)C1=C(C)NC(C)=C(C(=O)OCCCOc2ccc(-c3ccccc3)cc2)C1C (centres unmarked) [Example 66]
25 | 2800 nM | CCOC(=O)C1=C(C)NC(C)=C(C(=O)OCCCSc2ccc(Cl)cc2)C1C (centres unmarked) [Example 82]
26 | 10000 nM | COC(=O)C1=C(C)NC(C)=C(C(=O)OCCOc2ccc(OC)cc2)C1C (centres unmarked) [Example 62]
27 | 3000 nM | CCOC(=O)C1=C(C)NC(C)=C(C(=O)OCCCOc2ccc3ccccc3c2)C1C (centres unmarked) [Example 152, 3-(2-naphthyloxy) propyl 5-ethoxycarbonyl-2,4,6-trimethyl-1,4-dihydropyridine-3-carboxylate]
28 | 2800 nM | COC(=O)C1=C(C)NC(C)=C(C(=O)OCCCSc2ccc([N+](=O)[O-])cc2)C1C (centres unmarked) [Example 76]
29 | 320 nM | CCC1C(C(=O)OC)=C(C)NC(C)=C1C(=O)OCCCSc1ccc(Cl)cc1 (centres unmarked) [Example 164, 3-(4-chlorophenylthio) propyl 2,6-dimethyl-4-ethyl-5-methoxycarbonyl-1,4-dihydropyridine-3-carboxylate]
30 | 2600 nM | CCOC(=O)C1=C(C)NC(C)=C(C(=O)OCCCSc2ccccc2)C1C (centres unmarked) [Example 166]
31 | 2400 nM | CCOC(=O)C1=C(C)NC(C)=C(C(=O)OCCCOc2cccc(N(C)C)c2)C1C (centres unmarked) [Example 133]
32 | 10000 nM | COC(=O)C1=C(C)NC(C)=C(C(=O)OCCOc2ccc(Cl)cc2)C1C (centres unmarked) [Example 131]
33 | 2800 nM | COC(=O)C1=C(C)NC(C)=C(C(=O)OCCOc2ccc(-c3ccccc3)cc2)C1C (centres unmarked) [Example 64]
34 | 2800 nM | CCOC(=O)C1=C(C)NC(C)=C(C(=O)OCCS(=O)(=O)c2ccccc2)C1C (centres unmarked) [Example 74]
35 | 2500 nM | CCOC(=O)C1=C(C)NC(C)=C(C(=O)OCCCSc2ccc(Cl)cc2)C1CC (centres unmarked) [Example 165, 3-(4-chlorophenylthio) propyl 2,6-dimethyl-4-ethyl-5-ethoxycarbonyl-1,4-dihydropyridine-3-carboxylate]
36 | 2000 nM | COC(=O)C1=C(C)NC(C)=C(C(=O)OCCOc2ccc(Oc3ccccc3)cc2)C1C (centres unmarked) [Example 140]
37 | 1100 nM | COC(=O)C1=C(C)NC(C)=C(C(=O)OCCCOc2cccc3ccccc23)C1C (centres unmarked) [Example 154]
38 | 2000 nM | COC(=O)C1=C(C)NC(C)=C(C(=O)OCCCOc2ccc(OC)cc2)C1C (centres unmarked) [Example 61]
39 | 410 nM | COC(=O)C1=C(C)NC(C)=C(C(=O)OCCCSc2ccccc2)C1C (centres unmarked) [Example 163, 3-(phenylthio) propyl 5-methoxycarbonyl-2,4,6-trimethyl-1,4-dihydropyridine-3-carboxylate]
40 | 2700 nM | COC(=O)C1=C(C)NC(C)=C(C(=O)OCCCS(=O)(=O)c2ccc(C)cc2)C1C (centres unmarked) [Example 52]
41 | 190 nM | CCC1C(C(=O)OC)=C(C)NC(C)=C1C(=O)OCCCSc1ccc(C)cc1 (centres unmarked) [Example 172]

Reference: patent US5298619A, “1,4-dihydropyridine compounds with PAF-antagonistic activity” (Alter, S.A., priority 1991, dated 1994)
